Series [1] in a line: Long term storage stability at 2-8° C. The series is classed as physicochemical. Conditions: storage at 2-8° C.
Series [2] in a line: Exposure of the solid form to 20-80% relative humidity for 7 days at room temperature. It counts as physicochemical. Conditions: exposed to 20-80% RH for 7 days at room temperature.

For the substance “Lucerastat: Salicylic acid [Lucerastat: Salicylic acid Form LC-2]”, the long term stability result in series [1] was “at least 1 year”.
For Lucerastat: L-Pyroglutamic acid, in series [2], the deliquescence entry is listed as “does not deliquesce” and the polymorphic stability result is “polymorphically stable”. Also, the long term stability entry in series [1] is “at least 1 year”.
